Laboratory results from patent US11524951B2, “2-(2,4,5-substituted-anilino)pyrimidine compounds” (AstraZeneca AB, priority 2011, dated 2022).

Columns and labels:
Type in all cases: cell-based
[1] = target: T1, L858R/T790M EGFR (Homo sapiens, UniProt P00533, L858R/T790M); test: L858R/T790M EGFR (double mutant) cellular phosphorylation assay; conditions: NCI-H1975 human lung cells; endogenous p-EGFR in cell lysates by ELISA; 2 h with compound
T1 construct: Assays to measure cellular phosphorylation of endogenous p-EGFR in cell lysates; endogenous in cells; host or cells: NCI-H1975 (human lung cell line)
T1 sequence (P00533 25-1210 T790M/L858R): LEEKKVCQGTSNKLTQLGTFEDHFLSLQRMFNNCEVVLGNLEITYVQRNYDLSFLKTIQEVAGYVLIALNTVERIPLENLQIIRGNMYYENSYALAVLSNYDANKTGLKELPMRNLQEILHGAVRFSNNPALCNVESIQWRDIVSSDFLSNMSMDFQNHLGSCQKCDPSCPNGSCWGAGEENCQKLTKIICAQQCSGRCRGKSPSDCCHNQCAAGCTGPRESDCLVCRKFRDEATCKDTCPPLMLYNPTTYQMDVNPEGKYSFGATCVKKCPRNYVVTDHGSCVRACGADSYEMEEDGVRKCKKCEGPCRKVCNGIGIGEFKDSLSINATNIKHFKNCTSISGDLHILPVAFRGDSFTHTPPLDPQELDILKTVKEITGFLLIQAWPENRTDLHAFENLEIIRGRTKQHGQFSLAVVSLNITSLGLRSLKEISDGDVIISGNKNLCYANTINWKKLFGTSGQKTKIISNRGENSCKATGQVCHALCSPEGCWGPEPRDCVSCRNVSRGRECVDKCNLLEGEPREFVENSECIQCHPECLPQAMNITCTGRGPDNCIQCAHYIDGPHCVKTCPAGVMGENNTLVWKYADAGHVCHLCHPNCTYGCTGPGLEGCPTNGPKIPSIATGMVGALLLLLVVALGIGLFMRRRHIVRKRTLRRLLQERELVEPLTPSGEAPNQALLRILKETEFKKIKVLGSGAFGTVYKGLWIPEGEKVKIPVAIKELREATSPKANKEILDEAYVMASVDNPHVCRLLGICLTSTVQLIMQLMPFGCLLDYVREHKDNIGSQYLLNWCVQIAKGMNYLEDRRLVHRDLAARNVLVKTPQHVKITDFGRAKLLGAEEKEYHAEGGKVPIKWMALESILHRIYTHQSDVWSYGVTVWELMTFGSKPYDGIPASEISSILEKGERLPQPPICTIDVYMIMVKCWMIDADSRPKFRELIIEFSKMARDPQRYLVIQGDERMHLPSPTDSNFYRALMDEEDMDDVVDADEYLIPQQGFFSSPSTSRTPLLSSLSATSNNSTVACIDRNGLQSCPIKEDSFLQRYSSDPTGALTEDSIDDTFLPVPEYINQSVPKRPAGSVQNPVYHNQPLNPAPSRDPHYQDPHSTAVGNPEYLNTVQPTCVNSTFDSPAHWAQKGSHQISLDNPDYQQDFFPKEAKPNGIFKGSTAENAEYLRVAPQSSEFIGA
Experimental: Assay 2: L858R/T790M EGFR (Double Mutant) Cellular Phosphorylation Assay
The human lung cell lines NCI-H1975 were obtained from the American type Culture Collection. […] Cells were grown in a humidified incubator at 37° C. with 5% CO2.
Assays to measure cellular phosphorylation of endogenous p-EGFR in cell lysates were carried out according to the protocol described in the R&D Systems DuoSet IC Human Phospho-EGF R ELISA (R&D Systems catalogue number #DYC1095).
40 μL of cells were seeded (10000 cells/well) in growth medium in Corning black, clear-bottomed 384-well plates and incubated at 37° C. with 5% CO2 overnight. […] Plates were incubated for a further 2 h and following aspiration of medium, 40 μL 1× lysis buffer was added to each well. Greiner black high bind 384-well plates were coated with capture antibody and then blocked with 3% BSA. Following removal of block, 15 μL of lysate were transferred to the Greiner black high bind 384-well plates and incubated for 2 hours. Following aspiration and washing of the plates with PBS, 20 μL of detection antibody were added and incubated for 2 hours. […] 20 μL QuantaBlu stop solution were added to plates and fluorescence read on an Envision plate reader using
The data obtained with each compound was exported into a suitable software package (such as Origin) to perform curve fitting analysis.

[2] = target: T2, Wild-type EGFR (Homo sapiens, UniProt P00533); test: Wild-type EGFR cellular phosphorylation assay; conditions: LoVo human colon cells; endogenous p-EGFR in cell lysates by ELISA; 2 h with compound, then stimulated 100 ng/ml for 10 minutes; read-out: Assay 3 (IC50)
T2 construct: Assays to measure cellular phosphorylation of endogenous p-EGFR in cell lysates; endogenous in cells; host or cells: LoVo (human colon cell line)
T2 sequence (P00533 25-1210): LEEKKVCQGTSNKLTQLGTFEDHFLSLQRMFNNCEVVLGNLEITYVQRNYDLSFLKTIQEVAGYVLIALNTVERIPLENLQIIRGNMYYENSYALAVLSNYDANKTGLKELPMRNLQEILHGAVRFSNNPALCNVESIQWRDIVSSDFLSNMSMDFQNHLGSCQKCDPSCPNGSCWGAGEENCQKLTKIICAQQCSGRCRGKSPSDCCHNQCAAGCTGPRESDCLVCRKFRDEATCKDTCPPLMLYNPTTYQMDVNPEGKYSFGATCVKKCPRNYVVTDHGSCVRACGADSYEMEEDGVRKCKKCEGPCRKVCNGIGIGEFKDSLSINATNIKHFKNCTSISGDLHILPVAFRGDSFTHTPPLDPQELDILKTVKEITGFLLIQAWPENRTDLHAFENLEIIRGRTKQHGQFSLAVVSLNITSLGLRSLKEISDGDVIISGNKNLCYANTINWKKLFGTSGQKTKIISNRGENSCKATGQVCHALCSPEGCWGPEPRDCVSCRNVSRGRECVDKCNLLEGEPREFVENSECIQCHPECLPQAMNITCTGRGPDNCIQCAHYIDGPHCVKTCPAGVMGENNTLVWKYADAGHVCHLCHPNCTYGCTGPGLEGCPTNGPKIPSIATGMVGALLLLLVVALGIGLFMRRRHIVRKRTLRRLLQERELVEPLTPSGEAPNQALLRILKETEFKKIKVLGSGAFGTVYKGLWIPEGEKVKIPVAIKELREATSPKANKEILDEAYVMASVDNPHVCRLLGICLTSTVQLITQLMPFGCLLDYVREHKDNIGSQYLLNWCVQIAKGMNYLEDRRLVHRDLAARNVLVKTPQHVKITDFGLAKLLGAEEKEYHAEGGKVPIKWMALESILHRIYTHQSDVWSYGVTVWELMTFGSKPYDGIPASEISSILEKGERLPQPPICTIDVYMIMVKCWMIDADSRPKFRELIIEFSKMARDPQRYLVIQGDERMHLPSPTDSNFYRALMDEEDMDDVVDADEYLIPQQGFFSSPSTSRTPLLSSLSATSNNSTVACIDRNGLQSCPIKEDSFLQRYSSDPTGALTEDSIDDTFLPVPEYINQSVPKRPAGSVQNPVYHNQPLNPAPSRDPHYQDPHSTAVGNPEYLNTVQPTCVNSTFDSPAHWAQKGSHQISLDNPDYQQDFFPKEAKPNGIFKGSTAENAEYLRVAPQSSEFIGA
Experimental: Assay 3: Wild-Type EGFR Cellular Phosphorylation Assay
The human colon cell line LoVo were obtained from the American type Culture Collection. […] Cells were grown in a humidified incubator at 37° C. with 5% CO2. Assays to measure cellular phosphorylation of endogenous p-EGFR in cell lysates were carried out according to the protocol described in the R&D Systems DuoSet IC Human Phospho-EGF R ELISA (R&D Systems catalogue number #DYC1095). 40 μL of cells were seeded (15000 cells/well) in growth medium in Corning black, clear-bottomed 384-well plates and incubated at 37° C. with 5% CO2 overnight. […] Plates were incubated for a further 2 h then stimulated with 100 ng/ml for 10 minutes and following aspiration of medium, 40 μL 1× lysis buffer was added to each well. Greiner black high bind 384-well plates were coated with capture antibody and then blocked with 3% BSA. […] Following aspiration and washing of the plates with PBS, 20 μL of detection antibody were added and incubated for 2 hours. […] The data obtained with each compound was exported into a suitable software package (such as Origin) to perform curve fitting analysis.

[3] = target: T3, Exon19 deletion EGFR (Homo sapiens, UniProt P00533, DEL746-750); test: Exon19 deletion EGFR (activating single mutant) cellular phosphorylation assay; conditions: PC9 human lung cells (Exon 19 deletion EGFR); endogenous p-EGFR in cell lysates by ELISA; 2 h with compound; read-out: Assay 1 (IC50)
T3 construct: Assays to measure cellular phosphorylation of endogenous p-EGFR in cell lysates; endogenous in cells; host or cells: PC9 (human lung cell line)
T3 sequence (P00533 with tags, fused parts or gaps DEL746-750): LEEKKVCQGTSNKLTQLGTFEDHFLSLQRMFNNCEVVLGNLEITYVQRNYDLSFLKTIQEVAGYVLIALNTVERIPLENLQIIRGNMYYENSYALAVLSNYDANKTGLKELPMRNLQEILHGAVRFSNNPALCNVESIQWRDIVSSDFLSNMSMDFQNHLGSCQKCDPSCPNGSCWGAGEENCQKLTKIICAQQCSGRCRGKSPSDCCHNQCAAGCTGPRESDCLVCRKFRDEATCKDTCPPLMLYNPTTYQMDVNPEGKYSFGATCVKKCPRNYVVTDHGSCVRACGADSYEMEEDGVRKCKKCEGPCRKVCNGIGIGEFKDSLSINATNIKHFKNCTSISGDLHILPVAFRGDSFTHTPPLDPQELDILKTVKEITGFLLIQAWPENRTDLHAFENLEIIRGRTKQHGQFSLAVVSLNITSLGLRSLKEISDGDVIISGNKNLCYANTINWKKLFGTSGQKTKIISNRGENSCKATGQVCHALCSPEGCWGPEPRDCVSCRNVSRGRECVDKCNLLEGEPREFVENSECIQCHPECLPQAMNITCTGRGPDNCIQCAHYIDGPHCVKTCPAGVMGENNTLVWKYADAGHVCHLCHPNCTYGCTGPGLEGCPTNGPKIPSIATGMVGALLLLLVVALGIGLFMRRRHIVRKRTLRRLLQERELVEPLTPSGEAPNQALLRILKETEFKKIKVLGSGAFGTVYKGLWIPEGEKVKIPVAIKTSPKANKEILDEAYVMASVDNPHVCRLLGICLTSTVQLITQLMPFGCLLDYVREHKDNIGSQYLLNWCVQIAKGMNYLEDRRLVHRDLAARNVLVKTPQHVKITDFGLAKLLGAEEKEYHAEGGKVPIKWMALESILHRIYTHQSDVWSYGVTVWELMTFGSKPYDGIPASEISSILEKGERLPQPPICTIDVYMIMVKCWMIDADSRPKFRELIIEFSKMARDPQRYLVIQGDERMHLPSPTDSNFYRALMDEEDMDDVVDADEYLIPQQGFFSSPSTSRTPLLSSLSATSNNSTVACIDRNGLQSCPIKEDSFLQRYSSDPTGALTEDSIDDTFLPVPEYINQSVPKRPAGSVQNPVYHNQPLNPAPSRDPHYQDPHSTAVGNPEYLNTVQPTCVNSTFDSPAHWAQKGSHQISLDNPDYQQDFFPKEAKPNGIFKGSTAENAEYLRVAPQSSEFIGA
Experimental: Assay 1: Exon19 Deletion EGFR (Activating Single Mutant) Cellular Phosphorylation Assay
The human lung cell line PC9 (Exon 19 deletion EGFR) were obtained from the American type Culture Collection. […] Cells were grown in a humidified incubator at 37° C. with 5% CO2. Assays to measure cellular phosphorylation of endogenous p-EGFR in cell lysates were carried out according to the protocol described in the R&D Systems DuoSet IC Human Phospho-EGF R ELISA (R&D Systems catalogue number #DYC1095). 40 μL of cells were seeded (10000 cells/well) in growth medium in Corning black, clear-bottomed 384-well plates and incubated at 37° C. with 5% CO2 overnight. […] Plates were incubated for a further 2 h, then following aspiration of medium, 40 μL 1× lysis buffer was added to each well. Greiner black high bind 384-well plates were coated with capture antibody and then blocked with 3% BSA. Following removal of block, […], of lysate were transferred to the Greiner black high bind 384-well plates and incubated for 2 hours. Following aspiration and washing of the plates with PBS, 20 μL of detection antibody were added and incubated for 2 hours. […] The data obtained with each compound was exported into a suitable software package (such as Origin) to perform curve fitting analysis.

Row | SMILES | IC50 [1] [nM] | IC50 [2] [nM] | IC50 [3] [nM]
1 | C=CC(=O)Nc1cc(Nc2nccc(-c3cnn4c3CCCC4)n2)c(OC)cc1N1CC(N(C)C)C1 [Example 46, N-(2-{3-Dimethylaminoazetidin-1-yl}-4-methoxy-5-{[4-(4,5,6,7-tetrahydropyrazolo[1,5-a]pyridin-3-yl)pyrimidin-2-yl]amino}phenyl)prop-2-enamide] | 92.9 | 7090 | 129
2 | C=CC(=O)Nc1cc(Nc2ncc(C)c(-c3c[nH]c4ccccc34)n2)c(OC)cc1N1CCN(C)CC1 [Example 3, N-(5-{[4-(1H-Indol-3-yl)-5-methylpyrimidin-2-yl]amino}-4-methoxy-2-[4-methylpiperazin-1-yl]phenyl)prop-2-enamide] | 15.5 | 522 | 10.5
3 | C=CC(=O)Nc1cc(Nc2nccc(-c3cn(C)c4ccccc34)n2)c(OC)cc1N1CC2(CCCN2C)C1 [Example 49, N-(4-Methoxy-2-{8-methyl-2,8-diazaspiro[3.4]octan-2-yl}-5-{[4-(1-methylindol-3-yl)pyrimidin-2-yl]amino}phenyl)prop-2-enamide] | 51 | 3090 | 74.2
4 | C=CC(=O)Nc1cc(Nc2ncc(Cl)c(-c3cnn4ccccc34)n2)c(OC)cc1C1=CCN(C)CC1 [Example 9, N-{5-[(5-Chloro-4-pyrazolo[1,5-a]pyridin-3-ylpyrimidin-2-yl)amino]-4-methoxy-2-[1-methyl-3,6-dihydro-2H-pyridin-4-yl]phenyl}prop-2-enamide] | 2.82 | 874 | 9.96
5 | C=CC(=O)Nc1cc(Nc2ncc(Cl)c(-c3c[nH]c4ccccc34)n2)c(OC)cc1C1=CCN(C)CC1 [Example 2, N-(5-{[5-Chloro-4-(1H-indol-3-yl)pyrimidin-2-yl]amino}-4-methoxy-2-[1-methyl-3,6-dihydro-2H-pyridin-4-yl]phenyl)prop-2-enamide] | 1.5 | 41.2 | 1.29
6 | C=CC(=O)Nc1cc(Nc2nccc(-c3c[nH]c4ccccc34)n2)c(OC)cc1N1CC[C@@H](N(C)C)C1 [Example 57, N-(2-{(3R)-3-Dimethylaminopyrrolidin-1-yl}-5-{[4-(1H-indol-3-yl)pyrimidin-2-yl]amino}-4-methoxyphenyl)prop-2-enamide] | 14.5 | 89.3 | 6.45
7 | C=CC(=O)Nc1cc(Nc2ncc(Cl)c(-c3cn(C)c4ccccc34)n2)c(OC)cc1N(C)CCN(C)C [Example 26, N-(5-{[5-Chloro-4-(1-methylindol-3-yl)pyrimidin-2-yl]amino}-2-{2-dimethylaminoethyl-methylamino}-4-methoxyphenyl)prop-2-enamide] | 1.93 | 58.3 | 2.29
8 | C=CC(=O)Nc1cc(Nc2nccc(-c3cnn4c3CCCC4)n2)c(OC)cc1N1CC[C@@H]2CN(C)C[C@@H]21 [Example 43, N-(2-{(3aR,6aR)-5-Methyl-2,3,3a,4,6,6a-hexahydropyrrolo[3,4-b]pyrrol-1-yl}-4-methoxy-5-{[4-(4,5,6,7-tetrahydropyrazolo[1,5-a]pyridin-3-yl)pyrimidin-2-yl]amino}phenyl)prop-2-enamide] | 10.6 | 1340 | 18.2
9 | C=CC(=O)Nc1cc(Nc2ncc(C#N)c(-c3cnn4ccccc34)n2)c(OC)cc1N1CC[C@@H](N(C)C)C1 [Example 38, N-{5-[(5-Cyano-4-pyrazolo[1,5-a]pyridin-3-ylpyrimidin-2-yl)amino]-2-[(3R)-3-dimethylaminopyrrolidin-1-yl]-4-methoxyphenyl}prop-2-enamide] | 4.41 | 538 | 5.09
10 | C=CC(=O)Nc1cc(Nc2nccc(-c3c[nH]c4ccccc34)n2)c(OC)cc1N1CCN(C)CC1 [Example 15, N-(5-{[4-(1H-Indol-3-yl)pyrimidin-2-yl]amino}-4-methoxy-2-{4-methylpiperazin-1-yl}phenyl)prop-2-enamide] | 55.2 | 1070 | 14
11 | C=CC(=O)Nc1cc(Nc2nccc(-c3cnn4ccccc34)n2)c(OC)cc1N1CC[C@@H]2CN(C)C[C@@H]21 [Example 55, N-[2-[(3aR,6aR)-5-Methyl-2,3,3a,4,6,6a-hexahydropyrrolo[3,4-b]pyrrol-1-yl]-4-methoxy-5-[(4-pyrazolo[1,5-a]pyridin-3-ylpyrimidin-2-yl)amino]phenyl]prop-2-enamide] | 2.86 | 507 | 6.43
12 | C=CC(=O)Nc1cc(Nc2ncc(Cl)c(-c3c[nH]c4ccccc34)n2)c(OC)cc1N1CC[C@@H](N(C)C)C1 [Example 24, N-(5-{[5-Chloro-4-(1H-indol-3-yl)pyrimidin-2-yl]amino}-2-{(3R)-3-dimethylaminopyrrolidin-1-yl}-4-methoxyphenyl)prop-2-enamide] | 0.886 | 35.7 | 1.33
13 | C=CC(=O)Nc1cc(Nc2ncc(C#N)c(-c3c[nH]c4ccccc34)n2)c(OC)cc1N1CCN(C)CC1 [Example 27, N-(5-{[5-Cyano-4-(1H-indol-3-yl)pyrimidin-2-yl]amino}-4-methoxy-2-{4-methylpiperazin-1-yl}phenyl)prop-2-enamide] | 11.4 | 318 | 5.61
14 | C=CC(=O)Nc1cc(Nc2nccc(-c3cnn4c3CCCC4)n2)c(OC)cc1N1CC[C@@H](N(C)C)C1 [Example 44, N-(2-{(3R)-3-Dimethylaminopyrrolidin-1-yl}-4-methoxy-5-{[4-(4,5,6,7-tetrahydropyrazolo[1,5-a]pyridin-3-yl)pyrimidin-2-yl]amino}phenyl)prop-2-enamide] | 25.6 | 3640 | 33.3
15 | C=CC(=O)Nc1cc(Nc2ncc(C)c(-c3cn(C)c4ccccc34)n2)c(OC)cc1N(C)CCN(C)C [Example 19, N-(2-{2-Dimethylaminoethyl-methylamino}-4-methoxy-5-{[5-methyl-4-(1-methylindol-3-yl)pyrimidin-2-yl]amino}phenyl)prop-2-enamide] | 1.46 | 70.8 | 2.15
16 | C=CC(=O)Nc1cc(Nc2ncc(Cl)c(-c3cnn4ccccc34)n2)c(OC)cc1N1CCN(C(=O)[C@H](C)N)CC1 [Example 11, (S)—N-{2-[4-(2-Aminopropanoyl)piperazin-1-yl]-5-[(5-chloro-4-pyrazolo[1,5-a]pyridin-3-ylpyrimidin-2-yl)amino]-4-methoxyphenyl}prop-2-enamide] | 18.7 | 1600 | 28.5
17 | C=CC(=O)Nc1cc(Nc2ncc(Cl)c(-c3cnn4ccccc34)n2)c(OC)cc1N1CC[C@@H]2CN(C)C[C@@H]21 [Example 7, N-{2-[(3aR,6aR)-5-Methyl-2,3,3a,4,6,6a-hexahydropyrrolo[3,2-c]pyrrol-1-yl]-5-[(5-chloro-4-pyrazolo[1,5-a]pyridin-3-ylpyrimidin-2-yl)amino]-4-methoxyphenyl}prop-2-enamide] | 0.682 | 161 | 3.26
